The source of these data is US20170008888A1 (KYORIN PHARMACEUTICAL CO., LTD., priority 2014, published 2017).

In general, IC50 refers to the concentration that inhibits the measured activity by half.

What all share (assay type): binding
One test deals with T1, ERK5 (Homo sapiens, UniProt Q13164).
T1 construct: screened for activity against several kinases in Jurkat cells; endogenous in cells; host or cells: Jurkat cell lysate
Put plainly: Probe-based (AX9989 acyl phosphate ATP probe) kinase profiling in Jurkat lysate: ERK5. To be noted: for IC50: calculated from percent inhibition and screening concentration, Jurkat lysate, AX9989 probe; for inhibition at 10 µM: screening concentration 10 μM; for inhibition at 10 µM / inhibition at 1 µM: read-out: ERK5 Inhibition % at indicated screening concentration; for inhibition at 1 µM: screening concentration 1 μM. The gist of the method:
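Gel-filtered Jurkat lysate (5 mg/ml, 20 mM MnCl2) preincubated 15 min at room temperature with compound, then labelled with 5 μM AX9989 acyl phosphate ATP probe. Probe-labelled ERK5 active-site peptides quantified by LC/MS after trypsin digestion and streptavidin capture; IC50 calculated from percent inhibition at the screening concentration.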

Another test concerns the target T2, AurA (Homo sapiens, UniProt O14965).
T2 construct: screened for activity against several kinases in Jurkat cells; endogenous in cells; host or cells: Jurkat cell lysate
T2 sequence (O14965 1-403): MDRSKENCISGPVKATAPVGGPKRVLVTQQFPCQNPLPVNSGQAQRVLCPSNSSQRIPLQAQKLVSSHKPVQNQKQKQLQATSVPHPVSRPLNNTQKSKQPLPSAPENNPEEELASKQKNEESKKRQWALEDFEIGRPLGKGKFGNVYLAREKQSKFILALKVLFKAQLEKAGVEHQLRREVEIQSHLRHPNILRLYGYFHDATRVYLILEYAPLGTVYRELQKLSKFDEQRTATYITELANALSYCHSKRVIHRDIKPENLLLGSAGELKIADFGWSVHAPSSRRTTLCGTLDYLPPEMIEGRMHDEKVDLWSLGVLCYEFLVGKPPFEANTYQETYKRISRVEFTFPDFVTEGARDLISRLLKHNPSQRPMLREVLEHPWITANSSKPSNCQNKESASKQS
The experiment in a line: Probe-based (AX9989) kinase profiling in Jurkat lysate: AurA. Conditions: read-out: AurA Inhibition % at indicated screening concentration; for inhibition at 10 µM: screening concentration 10 μM; for inhibition at 1 µM: screening concentration 1 μM. Summed up: (§1)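 Jurkat lysate, HEPES pH 7.5 buffer + 20 mM MnCl2; cpd 15 min RT; AX9989 ATP probe 5 μM final, RT. Trypsin digest, streptavidin capture, LC/MS; % inhibition vs vehicle from labeled-peptide signal.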

A further test has as its system AurB or AurC. Put plainly: Probe-based (AX9989) kinase profiling in Jurkat lysate: AurB or AurC. The gist of the method:
as §1

Another test deals with T3, JAK1 (Homo sapiens, UniProt P23458).
T3 construct: screened for activity against several kinases in Jurkat cells; endogenous in cells; host or cells: Jurkat cell lysate
T3 sequence (P23458 whole entry): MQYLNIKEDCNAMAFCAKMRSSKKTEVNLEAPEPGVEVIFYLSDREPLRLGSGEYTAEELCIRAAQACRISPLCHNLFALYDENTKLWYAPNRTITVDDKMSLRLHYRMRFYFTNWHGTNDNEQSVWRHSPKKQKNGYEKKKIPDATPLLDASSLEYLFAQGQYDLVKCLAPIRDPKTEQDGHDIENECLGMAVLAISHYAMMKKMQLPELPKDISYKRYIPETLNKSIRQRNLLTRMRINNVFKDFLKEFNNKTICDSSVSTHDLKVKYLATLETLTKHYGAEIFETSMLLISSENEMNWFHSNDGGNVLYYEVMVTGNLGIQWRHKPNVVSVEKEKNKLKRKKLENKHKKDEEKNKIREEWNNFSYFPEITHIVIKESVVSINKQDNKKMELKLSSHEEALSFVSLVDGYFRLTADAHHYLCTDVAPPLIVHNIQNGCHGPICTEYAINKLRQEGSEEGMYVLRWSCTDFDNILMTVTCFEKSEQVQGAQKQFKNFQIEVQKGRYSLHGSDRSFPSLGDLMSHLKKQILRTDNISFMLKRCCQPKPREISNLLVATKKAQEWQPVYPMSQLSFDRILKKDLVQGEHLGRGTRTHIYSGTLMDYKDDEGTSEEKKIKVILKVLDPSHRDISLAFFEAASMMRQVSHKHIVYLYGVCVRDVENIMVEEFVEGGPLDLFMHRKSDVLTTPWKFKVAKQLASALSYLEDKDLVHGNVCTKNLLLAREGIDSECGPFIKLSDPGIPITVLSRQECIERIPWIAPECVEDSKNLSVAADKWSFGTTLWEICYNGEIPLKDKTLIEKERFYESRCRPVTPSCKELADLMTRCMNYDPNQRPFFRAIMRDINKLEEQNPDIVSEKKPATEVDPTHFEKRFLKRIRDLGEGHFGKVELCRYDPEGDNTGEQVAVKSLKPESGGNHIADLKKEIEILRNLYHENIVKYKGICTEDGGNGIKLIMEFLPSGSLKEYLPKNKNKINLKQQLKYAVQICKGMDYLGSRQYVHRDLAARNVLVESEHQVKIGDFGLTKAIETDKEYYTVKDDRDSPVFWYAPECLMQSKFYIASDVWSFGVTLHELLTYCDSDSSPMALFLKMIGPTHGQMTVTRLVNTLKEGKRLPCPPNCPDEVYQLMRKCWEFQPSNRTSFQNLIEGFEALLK
Put plainly: Probe-based (AX9989) kinase profiling in Jurkat lysate: JAK1. Conditions: read-out: JAK1 Inhibition % at indicated screening concentration; for inhibition at 10 µM: screening concentration 10 μM; for inhibition at 1 µM: screening concentration 1 μM. The gist of the method: as §1

Another test deals with AMPKa1 or AMPKa2. The experiment in a line: Probe-based (AX9989) kinase profiling in Jurkat lysate: AMPKa1 or AMPKa2. Summed up:
as §1

Another test has as its target T4, TAO2 (Homo sapiens, UniProt Q9UL54).
T4 construct: screened for activity against several kinases in Jurkat cells; endogenous in cells; host or cells: Jurkat cell lysate
T4 sequence (Q9UL54 1-1235): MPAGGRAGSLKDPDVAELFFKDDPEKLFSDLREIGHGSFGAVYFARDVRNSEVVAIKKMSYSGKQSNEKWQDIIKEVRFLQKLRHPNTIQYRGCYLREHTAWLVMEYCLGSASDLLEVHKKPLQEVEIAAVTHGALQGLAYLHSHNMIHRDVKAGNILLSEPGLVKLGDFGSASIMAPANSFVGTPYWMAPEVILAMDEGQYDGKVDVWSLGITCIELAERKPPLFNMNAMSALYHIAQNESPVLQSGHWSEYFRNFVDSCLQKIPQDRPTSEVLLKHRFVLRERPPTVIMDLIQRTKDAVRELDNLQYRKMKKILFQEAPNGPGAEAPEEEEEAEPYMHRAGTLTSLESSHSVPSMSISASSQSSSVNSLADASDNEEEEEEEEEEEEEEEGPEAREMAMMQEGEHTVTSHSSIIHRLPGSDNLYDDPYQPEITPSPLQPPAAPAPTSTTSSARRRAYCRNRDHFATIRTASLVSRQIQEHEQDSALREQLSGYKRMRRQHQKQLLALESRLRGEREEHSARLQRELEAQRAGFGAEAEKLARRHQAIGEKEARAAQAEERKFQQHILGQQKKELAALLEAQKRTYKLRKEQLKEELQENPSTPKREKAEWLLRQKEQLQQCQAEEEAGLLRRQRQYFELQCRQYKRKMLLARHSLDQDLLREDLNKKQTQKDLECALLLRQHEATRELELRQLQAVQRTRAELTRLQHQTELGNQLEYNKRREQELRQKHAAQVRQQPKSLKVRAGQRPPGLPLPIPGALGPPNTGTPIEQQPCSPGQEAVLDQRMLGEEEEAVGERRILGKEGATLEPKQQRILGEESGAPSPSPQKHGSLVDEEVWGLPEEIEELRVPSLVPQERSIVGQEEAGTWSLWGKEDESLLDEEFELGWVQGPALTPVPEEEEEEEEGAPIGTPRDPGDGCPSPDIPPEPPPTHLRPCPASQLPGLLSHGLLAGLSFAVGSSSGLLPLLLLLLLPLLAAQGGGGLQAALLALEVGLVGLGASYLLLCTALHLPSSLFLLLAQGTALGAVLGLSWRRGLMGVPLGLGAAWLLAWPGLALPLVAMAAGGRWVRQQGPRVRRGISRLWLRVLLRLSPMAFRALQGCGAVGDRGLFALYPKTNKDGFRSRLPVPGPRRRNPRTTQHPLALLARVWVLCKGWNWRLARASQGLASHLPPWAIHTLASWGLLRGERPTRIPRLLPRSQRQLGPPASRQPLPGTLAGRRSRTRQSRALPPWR
Put plainly: Probe-based (AX9989) kinase profiling in Jurkat lysate: TAO2. Conditions: read-out: TAO2 Inhibition % at indicated screening concentration; for inhibition at 10 µM: screening concentration 10 μM; for inhibition at 1 µM: screening concentration 1 μM. Summed up: as §1

Another test concerns the target T5, ACK (Homo sapiens, UniProt Q07912).
T5 construct: screened for activity against several kinases in Jurkat cells; endogenous in cells; host or cells: Jurkat cell lysate
The experiment in a line: Probe-based (AX9989) kinase profiling in Jurkat lysate: ACK. Conditions: read-out: ACK Inhibition % at indicated screening concentration; for inhibition at 10 µM: screening concentration 10 μM; for inhibition at 1 µM: screening concentration 1 μM. The gist of the method:
as §1

In the next test the test system is ABL or ARG. The experiment in a line: Probe-based (AX9989) kinase profiling in Jurkat lysate: ABL or ARG. The gist of the method:
as §1

Where only a bound is given, the exact number is not on record here.

T5 sequence (Q07912 whole entry): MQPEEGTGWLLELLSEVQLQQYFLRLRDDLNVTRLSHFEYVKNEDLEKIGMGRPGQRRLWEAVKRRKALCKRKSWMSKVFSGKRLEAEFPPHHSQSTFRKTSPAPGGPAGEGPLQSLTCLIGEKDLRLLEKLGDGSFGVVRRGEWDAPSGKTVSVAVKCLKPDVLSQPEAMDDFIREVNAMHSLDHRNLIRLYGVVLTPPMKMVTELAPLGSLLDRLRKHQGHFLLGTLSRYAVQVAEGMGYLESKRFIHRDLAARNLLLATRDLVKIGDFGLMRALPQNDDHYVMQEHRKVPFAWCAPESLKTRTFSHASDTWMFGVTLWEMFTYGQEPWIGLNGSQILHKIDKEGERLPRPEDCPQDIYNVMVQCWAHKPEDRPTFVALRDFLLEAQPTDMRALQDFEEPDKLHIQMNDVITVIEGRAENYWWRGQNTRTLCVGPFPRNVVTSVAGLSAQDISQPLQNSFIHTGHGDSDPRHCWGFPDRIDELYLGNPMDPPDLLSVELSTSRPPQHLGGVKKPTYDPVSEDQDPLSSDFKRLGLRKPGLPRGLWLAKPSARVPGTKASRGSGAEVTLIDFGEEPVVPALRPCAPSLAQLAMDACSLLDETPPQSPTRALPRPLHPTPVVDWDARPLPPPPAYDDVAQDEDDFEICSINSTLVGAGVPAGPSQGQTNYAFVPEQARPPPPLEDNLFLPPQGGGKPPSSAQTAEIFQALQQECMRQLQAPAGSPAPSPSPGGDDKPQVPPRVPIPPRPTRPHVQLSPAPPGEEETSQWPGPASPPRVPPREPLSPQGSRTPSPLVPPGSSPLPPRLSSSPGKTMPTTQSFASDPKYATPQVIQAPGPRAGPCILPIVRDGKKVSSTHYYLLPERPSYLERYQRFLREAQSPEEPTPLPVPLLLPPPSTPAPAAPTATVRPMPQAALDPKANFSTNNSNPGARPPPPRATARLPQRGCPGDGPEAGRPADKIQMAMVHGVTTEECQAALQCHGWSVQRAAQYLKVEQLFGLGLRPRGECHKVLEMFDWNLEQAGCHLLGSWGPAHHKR
T1 sequence (Q13164 whole entry): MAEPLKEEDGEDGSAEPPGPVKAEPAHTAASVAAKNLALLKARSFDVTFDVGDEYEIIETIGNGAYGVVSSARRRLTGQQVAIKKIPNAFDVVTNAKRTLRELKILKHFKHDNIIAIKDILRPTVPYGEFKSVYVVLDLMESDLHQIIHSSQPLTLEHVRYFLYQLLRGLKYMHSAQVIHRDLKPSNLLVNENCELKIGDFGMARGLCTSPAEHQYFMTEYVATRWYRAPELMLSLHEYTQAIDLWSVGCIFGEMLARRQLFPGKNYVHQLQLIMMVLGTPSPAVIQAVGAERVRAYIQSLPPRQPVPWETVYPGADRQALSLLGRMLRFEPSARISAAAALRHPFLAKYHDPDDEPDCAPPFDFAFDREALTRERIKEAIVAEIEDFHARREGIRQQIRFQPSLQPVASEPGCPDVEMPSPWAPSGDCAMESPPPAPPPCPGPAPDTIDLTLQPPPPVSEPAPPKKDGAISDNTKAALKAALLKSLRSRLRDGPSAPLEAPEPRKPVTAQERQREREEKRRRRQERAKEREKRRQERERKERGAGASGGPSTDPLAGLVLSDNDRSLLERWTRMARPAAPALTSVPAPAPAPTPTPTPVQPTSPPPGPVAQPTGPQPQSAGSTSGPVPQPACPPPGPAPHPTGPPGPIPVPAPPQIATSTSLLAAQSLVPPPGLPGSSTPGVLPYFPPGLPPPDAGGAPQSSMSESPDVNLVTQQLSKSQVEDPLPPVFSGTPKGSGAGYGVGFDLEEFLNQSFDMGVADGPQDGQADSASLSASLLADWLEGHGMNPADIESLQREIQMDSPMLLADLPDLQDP

For `CCOc1cc(C(=O)N2CCOCC2)ccc1Nc1cc2c(cn1)N(C)C(=O)c1ccccc1[S+]2[O-]` (stereo not drawn) [Compound T83, 3-((2-ethoxy-4-(morpholine-4-carbonyl)phenyl)amino)-11-methylbenzo[f]pyrido[4,3-b][1,4]thiazepin-10(11H)-one 5-oxide], the IC50 on ERK5 is over 500 nM. The inhibition at 10 µM on ERK5 was 75 to 90%; on AurA, at most 35%; at JAK1 it was at most 35%; at TAO2, at most 35%; on ACK, at most 35%. In addition, the “AurB or AurC Inhibition % at indicated screening concentration” value (from here on “AurB or AurC Inhibition %”) in the test with AurB or AurC (screening concentration 10 μM) is “E (E is ≦35%)”. The “AMPKa1 or AMPKa2 Inhibition % at indicated screening concentration” value (from here on “AMPKa1 or AMPKa2 Inhibition %”) in the test with AMPKa1 or AMPKa2 (screening concentration 10 μM) was “E (E is ≦35%)”. In the test with ABL or ARG (screening concentration 10 μM), the “ABL or ARG Inhibition % at indicated screening concentration” value (from here on “ABL or ARG Inhibition %”) is recorded as “E (E is ≦35%)”.
Turning to `CCOc1cc(C(=O)N2CCOCC2)ccc1Nc1cc2c(cn1)N(C)C(=O)c1ccccc1S2(=O)=O` [Compound T84], the IC50 on ERK5 is over 500 nM. The inhibition at 10 µM on ERK5 is 75 to 90%; on AurA it was at most 35%; at JAK1, at most 35%; on TAO2, at most 35%; at ACK, at most 35%. In the test on AurB or AurC (screening concentration 10 μM), the “AurB or AurC Inhibition %” value is given as “E (E is ≦35%)”. The “AMPKa1 or AMPKa2 Inhibition %” value with AMPKa1 or AMPKa2 (screening concentration 10 μM) was “E (E is ≦35%)”. Moreover, the “ABL or ARG Inhibition %” value in the test on ABL or ARG (screening concentration 10 μM) is “E (E is ≦35%)”.
Take `CN1C(=O)c2ccccc2N(S(C)(=O)=O)c2cc(N[C@H]3CC[C@H](O)CC3)ncc21` [Compound T86, 3-(((1r,4r)-4-hydroxycyclohexyl)amino)-11-methyl-5-(methylsulfonyl)-5H-benzo[e]pyrido[3,4-b][1,4]diazepin-10(11H)-one]: on ERK5, the IC50 is over 500 nM. For the same compound, the inhibition at 1 µM was 35 to 50% at ERK5; at most 35% on AurA; at most 35% at JAK1; at most 35% at TAO2; at most 35% on ACK. Also, the “AurB or AurC Inhibition %” value with AurB or AurC (screening concentration 1 μM) is listed as “E (E is ≦35%)”. In addition, the “AMPKa1 or AMPKa2 Inhibition %” value with AMPKa1 or AMPKa2 (screening concentration 1 μM) is “E (E is ≦35%)”. Also, in the test with ABL or ARG (screening concentration 1 μM), the “ABL or ARG Inhibition %” value is given as “E (E is ≦35%)”.
With `CCOc1cc(C(=O)N2CCN(C3CCN(C)CC3)CC2)ccc1Nc1cc2c(cn1)N(C)C(=O)c1ccccc1N2S(C)(=O)=O` [Compound T87], the IC50 on ERK5 was over 500 nM. Besides, the inhibition at 1 µM on ERK5 is 50 to 75%; on AurA it was at most 35%; at JAK1 it was at most 35%; at TAO2 it was at most 35%; at ACK it was at most 35%. Moreover, the “AurB or AurC Inhibition %” value in the test with AurB or AurC (screening concentration 1 μM) is “E (E is ≦35%)”. In addition, the “AMPKa1 or AMPKa2 Inhibition %” value in the test with AMPKa1 or AMPKa2 (screening concentration 1 μM) is “E (E is ≦35%)”. Also, in the test on ABL or ARG (screening concentration 1 μM), the “ABL or ARG Inhibition %” value is recorded as “E (E is ≦35%)”.
